As usually defined, the Kd is the free concentration of one partner at which half of the binding sites on the other are occupied at equilibrium, for simple one-to-one binding.

One assay has as its target T1, SHP-2 (SH2-SH2) (Homo sapiens, UniProt Q06124).
T1 construct: OPPF catalogue number 3911; aa 2–219, EC = 23,045 M^−1 cm^−1; His-tag; host or cells: E. coli BL21(DE3)pLysS
T1 sequence (Q06124 2-219): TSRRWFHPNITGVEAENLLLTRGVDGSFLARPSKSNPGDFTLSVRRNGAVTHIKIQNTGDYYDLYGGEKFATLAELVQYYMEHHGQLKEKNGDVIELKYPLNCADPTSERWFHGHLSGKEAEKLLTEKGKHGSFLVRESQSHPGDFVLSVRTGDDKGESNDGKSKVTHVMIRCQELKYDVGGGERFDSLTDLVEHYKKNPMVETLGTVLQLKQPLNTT
As to the kind of experiment: SPR binding of SHP-2 tandem (N+C) SH2 domains to immobilised phosphopeptides. Particulars: 37°C, SHP2 N+C SH2, equilibrium binding fit shown in Figure 6D. The source says: (§1) Biotinylated EAT-2 was produced by expression of full length human EAT-2 with a C-terminal BirA tag ([…]) in the E coli expression vector pTrcHisA. Constructs encoding the 6xHis-tagged tandem SH2 domains plus the SH3 domains of PLCγ1 (Swiss-Prot: P19174, aa 536–863) and PLCγ2 (Swiss-Prot: P16885, aa 519–838) were generated in pTrcHisA (5′ joining sequence with BglII site underlined: gag atc tcc translates as EIS). The molecular weight (MW) and theoretical extinction coefficients (EC) of recombinant PLCγ1 and PLCγ2 SH2-SH2-SH3 domains were PLCγ1; MW = 42531, EC = 63,830 M^−1 cm^−1 and PLCγ2; MW = 42415, EC = 67,270 M^−1 cm^−1.
Measurements of protein-protein affinity were performed on BIAcore 3000 and T200 systems using CM5 or biotin capture chips (GE Healthcare Ltd, UK). Streptavidin was coupled to CM5 sensor chips using standard NHS/EDC chemical linkage, followed by immobilization of biotinylated peptides. […] Equilibrium binding coefficients and dissociation and association rates were calculated using BIAevaluation and/or GraphPad Prism 5.4 software.
Binding of inhibitory tyrosine phosphatases through their SH2 domains to ITIMs is enhanced by phosphorylation of two tyrosine motifs which are appropriately spaced. […] We measured binding of SHP-2 tandem SH2 domains (recombinant SHP-1 SH2 domains were unstable in solution) to tandem ITSMs in CD244 (Figure 6B and Table 4). […]
(In general: Surface plasmon resonance follows binding to a sensor surface in real time, without labels.)

Assay [1] deals with T2, EAT-2 (Homo sapiens, UniProt O14796).
T2 construct: His-tag; made in house; host or cells: E. coli BL21(DE3)pLysS
T2 sequence (O14796 1-132): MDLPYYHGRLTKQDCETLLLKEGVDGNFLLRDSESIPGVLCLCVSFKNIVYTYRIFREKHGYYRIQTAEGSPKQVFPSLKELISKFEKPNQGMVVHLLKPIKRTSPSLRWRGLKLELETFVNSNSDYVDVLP
As to the kind of experiment: SPR binding of EAT-2 to immobilised phosphopeptides. The conditions noted are these: 37°C.
From the text: as §1
Soluble recombinant proteins were produced in BL21(DE3)pLysS E. coli (Calbiochem) at 37°C in 2TY medium and induced at OD 600 = 0.6 with 0.1 mM IPTG for 4 h or in 2XYT auto-induction (Formedium) medium overnight. Bacterial pellets were resuspended in ∼0.1 volume 10 mM HEPES pH7.4, 150 mM NaCl and used immediately or stored at −20°C in 10 ml aliquots. His-tag mediated protein purification was performed on a Co^2+ or Ni^2+ column by standard protocols. […] Where applicable, proteins were stored frozen in 10–25 mM HEPES pH 7.4, 200–300 mM NaCl (pH 7.4).All proteins were purified by size exclusion chromatography immediately prior to SPR analysis.
Measurements of protein-protein affinity were performed on BIAcore 3000 and T200 systems using CM5 or biotin capture chips (GE Healthcare Ltd, UK). Streptavidin was coupled to CM5 sensor chips using standard NHS/EDC chemical linkage, followed by immobilization of biotinylated peptides. The levels of peptide immobilized were approximately 25 and 50 response units respectively of single and tandem tyrosine motifs to facilitate saturating binding and limitation of “bridging” [22], [45]. Purified recombinant proteins were passed over the immobilized peptides at a range of concentrations in HBS-EP buffer, 10 mM HEPES pH 7.4, 150 mM NaCl, 3.4 mM EDTA, 0.005% surfactant, P20. Equilibrium binding coefficients and dissociation and association rates were calculated using BIAevaluation and/or GraphPad Prism 5.4 software.
(§2) The specificities of their SH2 domains overlap, introducing the concept of competition between them for ITSMs in cells where they are co-expressed, including NK cells.

Another assay has as its target T3, PLCγ1 (SH2-SH2-SH3) (Homo sapiens, UniProt P19174).
T3 construct: PLCγ1 (Swiss-Prot: P19174, aa 536–863); 6xHis (N); made in house; host or cells: E. coli BL21(DE3)pLysS
T3 sequence (P19174 536-863): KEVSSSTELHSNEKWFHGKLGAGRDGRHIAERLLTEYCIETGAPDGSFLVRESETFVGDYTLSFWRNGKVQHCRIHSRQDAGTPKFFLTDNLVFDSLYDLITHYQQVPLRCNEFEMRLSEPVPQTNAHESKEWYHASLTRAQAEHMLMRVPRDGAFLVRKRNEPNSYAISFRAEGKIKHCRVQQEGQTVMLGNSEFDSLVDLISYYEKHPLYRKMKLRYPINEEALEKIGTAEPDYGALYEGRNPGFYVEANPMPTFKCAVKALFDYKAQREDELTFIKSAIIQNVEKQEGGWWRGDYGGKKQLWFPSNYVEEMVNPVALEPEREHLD
As to the kind of experiment: SPR binding of PLCγ1 SH2-SH2-SH3 to immobilised phosphopeptides. The conditions noted are these: 37°C, ten two-fold dilutions, top concentration 1 μM, one-site specific binding model, curve shown in Figure 7B.
From the text: as §1
(§3) Soluble recombinant proteins were produced in BL21(DE3)pLysS E. coli (Calbiochem) at 37°C in 2TY medium and induced at OD 600 = 0.6 with 0.1 mM IPTG for 4 h or in 2XYT auto-induction (Formedium) medium overnight. Bacterial pellets were resuspended in ∼0.1 volume 10 mM HEPES pH7.4, 150 mM NaCl and used immediately or stored at −20°C in 10 ml aliquots. His-tag mediated protein purification was performed on a Co^2+ or Ni^2+ column by standard protocols. […]
(§4) Measurements of protein-protein affinity were performed on BIAcore 3000 and T200 systems using CM5 or biotin capture chips (GE Healthcare Ltd, UK). […] Equilibrium binding coefficients and dissociation and association rates were calculated using BIAevaluation and/or GraphPad Prism 5.4 software. […]

For the next assay, the target named is T4, PLCγ2 (SH2-SH2-SH3) (Homo sapiens, UniProt P16885).
T4 construct: PLCγ2 (Swiss-Prot: P16885, aa 519–838); 6xHis (N); made in house; host or cells: E. coli BL21(DE3)pLysS
T4 sequence (P16885 519-838): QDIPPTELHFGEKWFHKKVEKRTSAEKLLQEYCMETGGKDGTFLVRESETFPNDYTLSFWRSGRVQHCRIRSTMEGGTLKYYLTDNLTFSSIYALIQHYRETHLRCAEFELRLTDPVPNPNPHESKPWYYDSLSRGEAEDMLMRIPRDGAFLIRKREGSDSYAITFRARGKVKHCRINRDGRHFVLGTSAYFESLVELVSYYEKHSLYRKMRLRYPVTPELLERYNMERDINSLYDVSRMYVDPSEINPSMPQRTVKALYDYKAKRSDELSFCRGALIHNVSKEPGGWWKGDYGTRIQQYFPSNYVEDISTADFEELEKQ
As to the kind of experiment: SPR binding of PLCγ2 SH2-SH2-SH3 to immobilised phosphopeptides. Particulars: KD (Figure 7B), 37°C, ten two-fold dilutions, top concentration 1 μM, one-site specific binding model, curve shown in Figure 7B.
From the text: as §1, §3, §4

The test system of assay [2] is EAT-2. Particulars: ref [30]; cited from earlier work.
From the text: as §2

The next assay concerns the target T5, SAP (Homo sapiens, UniProt O60880).
T5 construct: His-tag; made in house; host or cells: E. coli BL21(DE3)pLysS
T5 sequence (O60880 1-128): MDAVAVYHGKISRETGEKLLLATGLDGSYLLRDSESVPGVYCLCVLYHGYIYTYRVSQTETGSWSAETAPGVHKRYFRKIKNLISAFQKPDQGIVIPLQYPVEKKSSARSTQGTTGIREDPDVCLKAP
As to the kind of experiment: SPR binding of SAP to immobilised phosphopeptides. Particulars: 37°C.

Entries after “also recorded” stand apart in the source; their conditions may differ. Where two headings read alike, the source gives them in different places. Non-standard residues stand in square brackets, D forms with d. Residues, ends and D or L forms follow the SMILES beside them. *: point of attachment. Biotin = O=C1N[C@H]2[C@H](CS[C@H]2CCCCC(=O)*)N1; pY = N[C@@H](Cc1ccc(OP(=O)(O)O)cc1)C(=O)O

Experimental for SAP: Measurements of protein-protein affinity were performed on BIAcore 3000 and T200 systems using CM5 or biotin capture chips (GE Healthcare Ltd, UK). Streptavidin was coupled to CM5 sensor chips using standard NHS/EDC chemical linkage, followed by immobilization of biotinylated peptides. The levels of peptide immobilized were approximately 25 and 50 response units respectively of single and tandem tyrosine motifs to facilitate saturating binding and limitation of “bridging” [22], [45]. […] Equilibrium binding coefficients and dissociation and association rates were calculated using BIAevaluation and/or GraphPad Prism 5.4 software.

In the case of `CC[C@H](C)[C@H](NC(=O)[C@H](CCSC)NC(=O)[C@H](CO)NC(=O)[C@H](Cc1ccc(OP(=O)(O)O)cc1)NC(=O)[C@@H](NC(=O)[C@@H](NC(=O)[C@H](CO)NC(=O)CNC(=O)CNC(=O)CNC(=O)[C@@H]1CCCN1C(=O)[C@H](Cc1ccccc1)NC(=O)[C@@H](NC(=O)[C@H](CCC(N)=O)NC(=O)[C@H](CCC(=O)O)NC(=O)[C@H](CCC(N)=O)NC(=O)[C@H](CCC(=O)O)NC(=O)[C@H](Cc1c[nH]cn1)NC(=O)[C@H](CC(N)=O)NC(=O)[C@H](CCCNC(=N)N)NC(=O)[C@H](CCCNC(=N)N)NC(=O)[C@@H](NC(=O)[C@H](CCCCN)NC(=O)[C@H](CC(C)C)NC(=O)[C@H](CC(=O)O)NC(=O)[C@H](CCCCN)NC(=O)[C@@H](NC(=O)[C@H](CC(=O)O)NC(=O)[C@H](CCC(=O)O)NC(=O)[C@H](Cc1ccc(OP(=O)(O)O)cc1)NC(=O)[C@@H](NC(=O)[C@@H](NC(=O)[C@H](CC(C)C)NC(=O)[C@H](Cc1ccccc1)NC(=O)[C@H](CCC(=O)O)NC(=O)CCCC[C@@H]1SC[C@@H]2NC(=O)N[C@@H]21)[C@@H](C)O)[C@@H](C)CC)C(C)C)[C@@H](C)O)[C@@H](C)O)[C@@H](C)O)[C@@H](C)CC)C(=O)N[C@@H](CCC(N)=O)C(=O)N[C@@H](CO)C(=O)O` [CD244 ITSM1+ITSM2] (Biotin-EFLTI[pY]EDVKDLKTRRNHEQEQTFPGGGSTI[pY]SMIQS-OH), on SHP-2 (SH2-SH2), the affinity, expressed as Kd, was 2400 nM.

Consider `CC[C@H](C)[C@H](NC(=O)[C@@H](NC(=O)[C@H](CC(C)C)NC(=O)[C@H](Cc1ccccc1)NC(=O)[C@H](CCC(=O)O)NC(=O)CCCC[C@@H]1SC[C@@H]2NC(=O)N[C@@H]21)[C@@H](C)O)C(=O)N[C@@H](Cc1ccc(OP(=O)(O)O)cc1)C(=O)N[C@@H](CCC(=O)O)C(=O)N[C@@H](CC(=O)O)C(=O)N[C@H](C(=O)N[C@@H](CCCCN)C(=O)N[C@@H](CC(=O)O)C(=O)O)C(C)C` [CD244 ITSM1], for which the Kd at EAT-2 [1] (HBS-EP pH 7.4, soluble EAT-2, immobilised phosphopeptide, mean, n and range in own columns of Table 4, read-out: KD) worked out at 60 nM; on EAT-2 [1] (ten two-fold dilutions, top concentration 0.3 μM, one-site specific binding model, curve shown in Figure 2B, read-out: KD (Figure 2B)), 12 nM; on PLCγ1 (SH2-SH2-SH3) it was 130 nM; at PLCγ2 (SH2-SH2-SH3), 360 nM.

Take `CC(C)C[C@H](NC(=O)[C@@H](NC(=O)[C@H](CC(=O)O)NC(=O)[C@@H](NC(=O)[C@H](Cc1ccc(OP(=O)(O)O)cc1)NC(=O)[C@H](CC(=O)O)NC(=O)[C@H](CO)NC(=O)[C@H](CC(N)=O)NC(=O)[C@H](CO)NC(=O)[C@H](CC(N)=O)NC(=O)CCCC[C@@H]1SC[C@@H]2NC(=O)N[C@@H]21)C(C)C)C(C)C)C(=O)N1CCC[C@H]1C(=O)O` [EAT-2 Y127] (Biotin-NSNSD[pY]VDVLP-OH): the Kd came to 18 nM on PLCγ1 (SH2-SH2-SH3) and 87 nM on PLCγ2 (SH2-SH2-SH3).

As to “ADYDTI [mouse CRACC tyrosine motif in the equivalent position to human CRACC ITSM1]”, in the assay on EAT-2 [2], the “binding of EAT-2 to mouse CRACC motif” value is recorded as “did not bind EAT-2”.

As for “Biotin-GENTEpYDTIPH [CRACC ITSM1, synthetic biotinylated phosphopeptide from human CRACC ITSM1]”, at EAT-2 [1], the “binding of EAT-2” value is listed as “Neither SAP nor EAT-2 bound; also recorded: No specific association”. Further, the “binding of SAP” value on SAP is recorded as “Neither SAP nor EAT-2 bound; also recorded: No specific association”.

Values taken from paper PMC3958483, “Fine Specificity and Molecular Competition in SLAM Family Receptor Signalling” (PLoS ONE, 2014).
